# Measurements taken from US12565490B2, “Inhibitors of Receptor Interacting Protein Kinase I for the treatment of disease” (Board of Regents, The University of Texas System, priority 2020, dated 2026).
# System: human monocytic cell line U937
# Assay: Human U937 cellular necroptosis assay
# Format: cell-based
# Conditions: U-937; U937 cells stimulated with 25 ng/mL human TNFalpha and 25 μM z-VAD-FMK; 22 hr; viability by Cell Titer-Glo 2.0; read-out: hU937 IC50
# Summary of the method: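 U937 cells (5000/well) driven to necroptosis by 25 ng/mL human TNFalpha plus 25 μM z-VAD-FMK alongside 1:3-diluted compounds, 22 hr at 37° C, 5% CO2. Viability by CellTiter-Glo luminescence; IC50 from four-parameter logistic fit.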
row,Compound,IC50 [nM]
1,"Cc1cccc(-c2nc(C(=O)N[C@H]3COc4cc(F)cnc4N(C)C3=O)ncc2Cl)c1 [Example 83, (S)-5-chloro-N-(8-fluoro-5-methyl-4-oxo-2,3,4,5-tetrahydropyrido[3,2-b]-[1,4]oxazepin-3-yl)-4-(m-tolyl)-pyrimidine-2-carboxamide]",15.1
2,"CN1C(=O)[C@@H](NC(=O)c2ncc(Cl)c(-c3ccccc3F)n2)COc2cccnc21 [Example 47, (S)-5-chloro-4-(2-fluorophenyl)-N-(5-methyl-4-oxo-2,3,4,5-tetrahydro-pyrido[3,2-b][1,4]oxazepin-3-yl)pyrimidine-2-carboxamide]",29.8
3,"Cc1cnc(C(=O)N[C@H]2COc3cc(C#N)ccc3N(C)C2=O)nc1N1CCCC1 [Example 20, (S)-N-(8-cyano-5-methyl-4-oxo-2,3,4,5-tetrahydro-benzo[b][1,4]oxazepin-3-yl)-5-methyl-4-(pyrrolidin-1-yl)-pyrimidine-2-carboxamide]",482
